Data reported in patent US20070276008A1, “Pharmaceutical formulation comprising glycine as a stabilizer” (Eisai Company Limited, priority 1997, published 2007).
Where two headings read alike, the source gives them in different places.

Assays:
[1] = Discoloration on reconstitution in aqueous solutions for intravenous administration; assay type: physicochemical; conditions: e.g. 5% dextrose or 0.9% saline
Description: It has been found by the present inventors that anti-ulcerative compounds such as compound 1 and the compounds described by general formula I below discolor when they are reconstituted, i.e., dissolved, in aqueous solutions, particularly in solutions suitable for intravenous administration, e.g., 5% dextrose or 0.9% saline. Such solutions quickly turn yellow to yellow-brown.

[2] = assay type: physicochemical
Procedure: A, B, and C contain 7.5 mg/mL glycine, equal to 100 mM glycine. D and E have 11.25 mg/mL glycine, equal to 150 mM glycine. F is the control without glycine.

[3] = Glycine concentration and temperature studies: chemical stability (residual potency and impurity levels); assay type: physicochemical
Procedure: A, B, and C contain 7.5 mg/mL glycine, equal to 100 mM glycine. […] F is the control without glycine.

[4] = Reduced glycine concentration experiments: color change in 0.9% saline pH 10; assay type: physicochemical
Procedure: Absorption measurements were taken at the zero time point, and at 2, 4, 6, and 8 hours after dissolution. […] The glycine concentration-dependence of compound 1 discoloration was evaluated at […] after dissolution.

[5] = Effect of storage conditions (light, temperature) on absorbance 400-650 nm; assay type: physicochemical; conditions: 2 mg/mL, 0.9% saline
Procedure: The effect of exposure to light and temperature was evaluated as a function of time for 0.9% saline solutions containing 2 mg/mL compound 1, with or without 10 mM glycine-NaOH buffer, was evaluated by monitoring absorbance at 400, 450, 500, 600, and 650 nm.

[6] = pH studies: chemical (HPLC) and physical (color) stability in water for injection; conditions: for Chemical and physical stability: 24 hours
[7] = Preliminary buffer evaluation (phosphate vs glycine-NaOH); assay type: physicochemical
Procedure: It is desirable that the pH of solutions of compound 1 and other compounds of the invention in 5% dextrose or normal saline remain in a range near about pH 10 to provide for an acceptable use period in a clinical setting. Phosphate and glycine buffer systems were tested.
Based on this propensity to precipitate, phosphate was disqualified as a buffer for the compounds of the invention.

COCCCOc1ccnc(C[S+]([O-])c2nc3ccccc3[nH]2)c1C (centres unmarked) [compound 1]
Color on reconstitution in aqueous solutions [1]: discolor | Color formation ([2]; 5° C. compared to room temperature): significantly retarded | Discoloration ([2]; solutions devoid of glycine, regardless of temperature): discolored very quickly | Discoloration ([2]; solutions with greater glycine concentrations): discolored more slowly | Difference in chemical stability between glycine formulations ([3]; 0 mM, 100 mM and 150 mM glycine): No substantial difference | Increase in impurity levels ([3]; 5° C., pH 10.5 to 11, 24 hours): without measurable increases | Impurities measured ([3]; room temperature, pH 10.5, 24 hours): > 1% | Increase in impurities ([3]; room temperature, pH 11 solution, 24 hours): < 0.5% | Rate of discoloration (absorption) ([4]; 4 mg/mL, 0.9% saline pH 10, 25° C. dark, 0-8 hours, glycine-free vs 50 mM glycine): much greater rate | Difference in absorbance spectrum between glycine concentrations ([4]; 4 mg/mL, 0.9% saline pH 10, 5, 10, 25, 50 mM glycine-NaOH, 5 hours): little difference | Absorbance ([4]; 5 mM glycine-NaOH solution, 5 hours post-dissolution): noticeably higher absorbance | Effect of glycine-NaOH buffer on absorption ([5]; 10 mM glycine-NaOH, all wavelengths, temperatures, lighting conditions): decreases absorption | Effect of exposure to light on color development ([5]; with or without 10 mM glycine-NaOH): no detrimental effect | Color development with increasing storage temperature ([5]; without glycine-NaOH buffer): increase in undesirable color development | Order of chemical and physical stability by pH ([6]; 5° C. and room temperature, 8 mg/mL in WFI): pH 11.5>pH 11>pH 10.5>pH 10>pH 9.5 | Time until solutions began to assume a yellow color ([6]; pH 9.5, 8 mg/mL in WFI): ≤ 30 min | Chemical and physical stability ([6]; pH 10.5, cold temperatures (5° C.)): adequate | Chemical and physical stability ([6]; pH 10.5, room temperature): marginally stable | Stability for manufacture and handling in preparation for freeze drying ([6]; pH 11 or greater, cold temperatures): adequately stable | Color formation ([7]; 50 mM phosphate buffer, compared with unbuffered solutions): color formation was not inhibited | Discoloration ([7]; 100 mM glycine/NaOH, pH above 10): substantially slower | Appearance on reconstitution ([7]; phosphate-containing plugs): hazy solutions | Appearance after freeze-drying ([7]; solutions in phosphate and glycine buffers): white, well-formed plugs
